Experimental data: ChEMBL document CHEMBL1201862, “PubChem BioAssay data set” (2004)
Calls of active or inactive are those of the source.

Legend:
[1] = target: T1, Heat shock factor protein 1 (Mus musculus, UniProt P38532); experiment: decrease of HSF1-responsive luciferase luminescence – cell-based, NIH3T3, dose retest, confirmation (AID 2382); format: functional;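 also: NIH3T3 fibroblasts with HSF1-driven luciferase reporter stressed by proteasome inhibitor MG132; luminescence from HSF1-driven luciferase expression after 8 hours of MG132 stress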
T1 sequence (P38532 whole entry): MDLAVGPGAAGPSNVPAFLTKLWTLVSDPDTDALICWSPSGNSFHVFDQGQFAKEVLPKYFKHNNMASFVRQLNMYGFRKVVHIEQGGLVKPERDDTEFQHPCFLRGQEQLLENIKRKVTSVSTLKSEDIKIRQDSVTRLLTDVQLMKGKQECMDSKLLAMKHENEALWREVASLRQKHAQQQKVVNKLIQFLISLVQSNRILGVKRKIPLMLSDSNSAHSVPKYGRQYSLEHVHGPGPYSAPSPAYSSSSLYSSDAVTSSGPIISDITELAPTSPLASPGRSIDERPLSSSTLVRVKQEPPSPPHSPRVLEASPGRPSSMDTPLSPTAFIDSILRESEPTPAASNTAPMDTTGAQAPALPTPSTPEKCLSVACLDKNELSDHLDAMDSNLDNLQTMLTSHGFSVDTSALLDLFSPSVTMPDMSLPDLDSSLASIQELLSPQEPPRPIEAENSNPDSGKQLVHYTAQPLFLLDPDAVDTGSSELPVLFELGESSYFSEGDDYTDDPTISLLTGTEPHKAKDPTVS

[2] = target: FAD-linked sulfhydryl oxidase ALR (Homo sapiens, UniProt P55789); experiment: ALR-catalysed DTT oxidation blockers – biochemical, H2O2 detection, luminescence, cherry-pick, dose response (AID 493248)
[3] = Luminescence-based counterscreen assay for KLF5 inhibitors: dose response cell-based high throughput screening assay to identify cytotoxic compounds using the IEC-6 intestinal epithelial cell line. [Related pubchem assays: 1700 (Primary screen.), 1834 (Confirmation screen.), 1858 (Summary AID.), 1905 (Counterscreen.)]; format: functional
[4] = blockade of melanocortin 4 receptor signaling – cell-based, plate reader, cherry pick, counter-screen for LGR2 antagonist project, dose response (AID 743444); format: functional;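 also: transfected HEK 293 cells stimulated with alpha-MSH peptide; potency of inhibitors of the alpha-MSH evoked signal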
[5] = off-target signal loss in HeLa-CEM21 co-culture – HeLa F-luc CTL cells, cherry-picked, counter-screen for HIV-1 Env fusion inhibitor project, dose response (AID 652040); format: functional, cell-based;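 also: potency for signal decrease marking cytotoxic or nonspecific inhibition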
[6] = blockers of HIV-1 envelope-mediated cell-cell fusion – cherry-pick, dose response (AID 652057); format: functional, cell-based
[7] = alpha-synuclein stem-loop translation blockers – luminescence, H4 neuroglioblastoma cells, dose confirmation, confirmation (AID 2454); format: functional, cell-based;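 also: H4 neuroglioblastoma cells carrying an alpha-synuclein 5'UTR luciferase reporter; potency for inhibition of the luciferase signal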
[8] = blockers of bursicon-stimulated LGR2 cAMP reporter – cell-based, HEK293, CRE-luciferase reporter, cherry pick, set 2, dose response (AID 743343); format: functional;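 also: transfected cells were stimulated with diluted bursicon conditioned medium after compound addition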
[9] = Luminescence Cell-Based Dose Response HTS to Identify Inhibitors of 5'UTR Stem-Loop Driven Prion Protein mRNA Translation in H4 Neuroglioblastoma Cells. [Related pubchem assays: 1827 (Project Summary), 1813 (Primary HTS)]; format: functional
[10] = blockers of HIV-1 ZM109 envelope-driven cell-cell fusion – HeLa effector, CEM target cells, luciferase, cherry-pick, dose response (AID 652058); format: functional, cell-based;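 also: luciferase signal from HIV-1 Env mediated cell-cell fusion of effector and target cells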
[11] = luciferase reporter signal suppression in cells – H4 neuroglioma cells, luminescence, dose response (AID 1990); format: functional, cell-based
[12] = luciferase reporter signal reduction – luminescence, H4-C neuroglioblastoma cells, dose response (AID 2458); format: functional, cell-based;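 also: H4 neuroglioblastoma cells stably carrying a luciferase reporter gene fusion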
[13] = target: Paired box protein Pax-8 (Homo sapiens, UniProt Q06710); experiment: PAX8 transcriptional activity inhibition in RMG-I – RMG-I cells, luciferase, cherry-pick, dose response (AID 687027); format: functional, cell-based;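 also: luciferase reporter driven by Pax8 target thyroperoxidase promoter measured by SteadyGlo luminescence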
[14] = viability loss in HEK293 cells – cell-based, plate reader, cherry-picked samples, cytotoxicity control, dose response (AID 743446); format: functional
[15] = cells; format: functional, cell-based
[16] = A549 cell cytotoxicity, dose response, cytotoxicity control, plate reader, cherry-pick, antagonist series (AID 743412); format: functional, cell-based
[17] = HIV-1 AD8 envelope cell-cell fusion blockers – cherry-pick, dose response (AID 652062); format: functional, cell-based;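 also: luciferase signal from cell-cell fusion driven by HIV-1 clade B AD8 Env; potency is for inhibitors of fusion seen as a drop in luminescence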
[18] = alpha-synuclein stem-loop luciferase translation blockers – H4 neuroglioma cells, luminescence, confirmation (AID 1988); format: functional, cell-based
[19] = target: DNA (cytosine-5)-methyltransferase 1 (Homo sapiens, UniProt P26358); experiment: inhibition of DNA methylation by DNMT1 – biochemical, fluorescent molecular beacon, confirmation (AID 602386); format: functional
[20] = target: Hexokinase HKDC1 (Homo sapiens, UniProt Q2TB90); experiment: inhibition of HKDC1 glucose phosphorylation – biochemical, W721R variant, dose response (AID 504729); format: functional
[21] = target: Cytochrome P450 2C9 (Homo sapiens, UniProt P11712); details: Potency
[22] = target: Cytochrome P450 3A4 (Homo sapiens, UniProt P08684); details: Potency;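 also: confirmatory qHTS run detecting inhibitors and substrates of CYP3A4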
[23] = target: T2, Polyadenylate-binding protein 1 (Homo sapiens, UniProt P11940); experiment: MLLE domain peptide-binding blockers, IC50 – biochemical, fluorescence polarization, FITC-PAM2 peptide, dose response (AID 602259); format: functional; details: read-out: IC50_Mean
[24] = target: T2, Polyadenylate-binding protein 1; experiment: MLLE binding blockers, Cy5 peptide tracer – biochemical, fluorescence polarization, Cy5-PAM2 peptide, secondary, miRNA deadenylation inhibitor project, dose response (AID 602260); format: functional; details: read-out: IC50_Mean
[25] = target: DNA dC->dU-editing enzyme APOBEC-3G (Homo sapiens, UniProt Q9HC16); experiment: Dose Response confirmation of small molecule APOBEC3G DNA Deaminase Inhibitors via a fluorescence-based single-stranded DNA deaminase assay. [Related pubchem assays (depositor defined):AID493012, AID493028]; format: functional
Chain of DNA dC->dU-editing enzyme APOBEC-3G (Q9HC16 whole entry): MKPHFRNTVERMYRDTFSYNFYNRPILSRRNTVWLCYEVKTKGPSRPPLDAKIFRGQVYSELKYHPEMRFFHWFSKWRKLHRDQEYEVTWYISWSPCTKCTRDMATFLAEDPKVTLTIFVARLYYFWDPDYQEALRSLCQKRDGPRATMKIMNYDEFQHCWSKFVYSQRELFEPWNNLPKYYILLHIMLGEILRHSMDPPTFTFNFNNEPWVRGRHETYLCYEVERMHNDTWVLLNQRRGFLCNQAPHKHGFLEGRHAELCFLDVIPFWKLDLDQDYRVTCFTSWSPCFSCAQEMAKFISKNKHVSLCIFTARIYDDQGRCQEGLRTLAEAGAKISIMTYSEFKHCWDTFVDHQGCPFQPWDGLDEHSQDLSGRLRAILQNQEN

Chain of Cytochrome P450 2C9 (P11712 whole entry): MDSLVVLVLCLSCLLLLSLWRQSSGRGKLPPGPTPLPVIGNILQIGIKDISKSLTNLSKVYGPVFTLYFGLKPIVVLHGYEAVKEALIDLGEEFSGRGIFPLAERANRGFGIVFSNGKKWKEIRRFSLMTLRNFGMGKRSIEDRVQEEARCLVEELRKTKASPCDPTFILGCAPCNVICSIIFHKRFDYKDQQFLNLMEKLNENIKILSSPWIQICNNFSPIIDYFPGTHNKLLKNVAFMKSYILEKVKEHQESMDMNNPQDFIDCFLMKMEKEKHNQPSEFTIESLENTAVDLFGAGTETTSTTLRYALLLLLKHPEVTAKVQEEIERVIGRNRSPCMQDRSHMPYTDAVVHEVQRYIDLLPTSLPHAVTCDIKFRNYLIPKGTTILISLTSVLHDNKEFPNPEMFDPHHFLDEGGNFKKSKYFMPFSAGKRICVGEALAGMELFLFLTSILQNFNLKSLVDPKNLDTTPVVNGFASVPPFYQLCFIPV
T2 sequence (P11940 whole entry, the tested form may be a part): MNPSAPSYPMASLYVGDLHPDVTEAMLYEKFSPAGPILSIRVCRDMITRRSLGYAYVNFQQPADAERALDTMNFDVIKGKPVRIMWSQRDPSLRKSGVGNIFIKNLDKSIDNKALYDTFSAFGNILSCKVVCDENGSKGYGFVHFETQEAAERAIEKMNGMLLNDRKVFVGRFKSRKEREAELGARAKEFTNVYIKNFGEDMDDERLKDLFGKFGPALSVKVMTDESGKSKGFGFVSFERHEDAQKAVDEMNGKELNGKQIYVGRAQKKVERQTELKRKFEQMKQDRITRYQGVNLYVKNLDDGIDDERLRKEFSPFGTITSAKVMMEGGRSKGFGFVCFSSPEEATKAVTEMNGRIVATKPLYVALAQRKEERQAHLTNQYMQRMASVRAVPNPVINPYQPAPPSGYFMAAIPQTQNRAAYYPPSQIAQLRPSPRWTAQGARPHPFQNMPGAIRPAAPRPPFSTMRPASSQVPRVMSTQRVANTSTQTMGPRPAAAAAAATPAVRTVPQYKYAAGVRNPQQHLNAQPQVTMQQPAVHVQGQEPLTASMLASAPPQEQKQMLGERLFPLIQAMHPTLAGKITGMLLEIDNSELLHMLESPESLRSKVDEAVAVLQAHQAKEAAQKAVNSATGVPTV
Chain of Hexokinase HKDC1 (Q2TB90 whole entry): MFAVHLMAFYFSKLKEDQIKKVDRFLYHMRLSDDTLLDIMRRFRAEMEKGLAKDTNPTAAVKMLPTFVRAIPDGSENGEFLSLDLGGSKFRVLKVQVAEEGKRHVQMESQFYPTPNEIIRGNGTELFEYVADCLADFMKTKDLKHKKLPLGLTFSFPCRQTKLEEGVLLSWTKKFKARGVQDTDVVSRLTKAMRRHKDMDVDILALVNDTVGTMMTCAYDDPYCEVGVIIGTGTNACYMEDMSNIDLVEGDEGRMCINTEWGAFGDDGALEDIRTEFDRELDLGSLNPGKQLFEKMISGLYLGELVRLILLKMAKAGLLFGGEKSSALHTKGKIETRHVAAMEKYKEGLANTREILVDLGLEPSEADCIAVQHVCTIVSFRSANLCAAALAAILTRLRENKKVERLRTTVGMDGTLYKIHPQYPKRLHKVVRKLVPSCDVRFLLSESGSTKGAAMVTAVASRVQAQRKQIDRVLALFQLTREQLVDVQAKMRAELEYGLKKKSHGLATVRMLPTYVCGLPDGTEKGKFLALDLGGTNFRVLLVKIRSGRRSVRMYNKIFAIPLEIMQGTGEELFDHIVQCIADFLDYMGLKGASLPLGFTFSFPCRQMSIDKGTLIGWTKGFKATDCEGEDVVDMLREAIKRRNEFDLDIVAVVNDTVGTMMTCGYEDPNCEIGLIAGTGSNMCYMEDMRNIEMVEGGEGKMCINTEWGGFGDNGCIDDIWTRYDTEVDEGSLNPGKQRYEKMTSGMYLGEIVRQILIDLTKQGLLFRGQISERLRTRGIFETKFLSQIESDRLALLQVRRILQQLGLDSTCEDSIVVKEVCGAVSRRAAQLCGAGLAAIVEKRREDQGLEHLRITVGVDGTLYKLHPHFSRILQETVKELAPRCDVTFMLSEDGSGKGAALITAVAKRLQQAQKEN
Chain of FAD-linked sulfhydryl oxidase ALR (P55789 whole entry): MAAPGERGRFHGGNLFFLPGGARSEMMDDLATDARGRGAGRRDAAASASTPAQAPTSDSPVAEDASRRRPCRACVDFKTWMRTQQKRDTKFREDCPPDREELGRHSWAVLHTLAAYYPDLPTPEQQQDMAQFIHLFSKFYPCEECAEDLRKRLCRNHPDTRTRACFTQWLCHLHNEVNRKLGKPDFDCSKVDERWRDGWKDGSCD
Chain of Paired box protein Pax-8 (Q06710 whole entry): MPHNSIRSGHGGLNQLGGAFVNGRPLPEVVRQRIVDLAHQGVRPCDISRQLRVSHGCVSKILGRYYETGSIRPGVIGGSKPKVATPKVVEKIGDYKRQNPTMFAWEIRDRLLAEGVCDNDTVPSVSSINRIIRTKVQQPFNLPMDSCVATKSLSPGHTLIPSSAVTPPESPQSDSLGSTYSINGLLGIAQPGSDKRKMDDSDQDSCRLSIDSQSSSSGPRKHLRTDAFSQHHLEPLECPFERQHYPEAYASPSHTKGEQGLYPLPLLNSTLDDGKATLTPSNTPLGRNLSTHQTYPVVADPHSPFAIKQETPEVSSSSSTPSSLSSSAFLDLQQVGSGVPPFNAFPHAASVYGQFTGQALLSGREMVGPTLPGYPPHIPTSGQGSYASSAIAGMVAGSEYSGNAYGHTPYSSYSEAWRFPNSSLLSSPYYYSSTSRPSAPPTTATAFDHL
Chain of Cytochrome P450 3A4 (P08684 whole entry, the tested form may be a part): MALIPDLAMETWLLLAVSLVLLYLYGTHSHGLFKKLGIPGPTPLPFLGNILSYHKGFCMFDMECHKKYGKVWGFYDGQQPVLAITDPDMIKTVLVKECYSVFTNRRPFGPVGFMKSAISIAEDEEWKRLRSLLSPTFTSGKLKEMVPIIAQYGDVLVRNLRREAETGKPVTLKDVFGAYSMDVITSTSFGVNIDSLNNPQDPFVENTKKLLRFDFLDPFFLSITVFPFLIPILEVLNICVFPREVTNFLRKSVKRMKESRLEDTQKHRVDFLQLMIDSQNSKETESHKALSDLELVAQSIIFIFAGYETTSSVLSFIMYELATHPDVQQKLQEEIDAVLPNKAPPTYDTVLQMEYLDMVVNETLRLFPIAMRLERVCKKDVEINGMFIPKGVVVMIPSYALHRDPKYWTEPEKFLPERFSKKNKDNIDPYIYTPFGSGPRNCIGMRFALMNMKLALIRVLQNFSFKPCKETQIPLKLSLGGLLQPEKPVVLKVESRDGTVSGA

Q: For `O=C(O)c1cccc(COc2ccc3c(c2)CCC3)c1`, which EC50 [1] is on record?
A: Its EC50 is 376 nM (inconclusive).

Q: And the AC50 [2]?
A: The AC50 was 1370 nM (active).

Q: And the IC50 [3]?
A: Its IC50 is > 39800 nM (not active).

Q: And the AC50 [4]?
A: The AC50 was 383 nM (active).

Q: And the AC50 [5]?
A: Its AC50 is 1680 nM (active).

Q: What about the AC50 [6] of the same compound?
A: Its AC50 is 684 nM (active).

Q: What about the EC50 [7] of the same compound?
A: The EC50 was 197 nM (active).

Q: And the AC50 [8]?
A: The AC50 was 326 nM (active).

Q: What about the EC50 [9] of the same compound?
A: Its EC50 is < 100 nM (active).

Q: And the AC50 [10]?
A: Its AC50 is 5090 nM (active).

Q: What about the EC50 [11] of the same compound?
A: The EC50 was 212 nM (active).

Q: What about the EC50 [12] of the same compound?
A: The EC50 was 233 nM (active).

Q: What about the AC50 [13] of the same compound?
A: Its AC50 is 3790 nM (active).

Q: And the AC50 [14]?
A: Its AC50 is > 52000 nM (inactive).

Q: And the EC50 [15]?
A: Its EC50 is 538 nM (active).

Q: And the AC50 [16]?
A: Its AC50 is > 52000 nM (inactive).

Q: What about the AC50 [17] of the same compound?
A: The AC50 was 1470 nM (active).

Q: And the EC50 [18]?
A: Its EC50 is < 100 nM (active).

Q: For `Cc1ccc(N2C(=O)NC(=O)/C(=C\c3cc(C)n(-c4sc5c(c4C#N)CCCC5)c3C)C2=O)cc1`, which IC50 [19] is on record?
A: The IC50 was 11100 nM (active).

Q: And the IC50 [20]?
A: Its IC50 is 14100 nM (active).

Q: With `CC1CCC2C(=O)N3C(CCC(C)C3c3ccccc3Br)C(=O)N2C1c1ccc(C#CCN(C)C)cc1` (stereo unspecified) as the compound, how does the AC50 [21] read?
A: Its AC50 is 3980 nM (inconclusive).

Q: What about the AC50 [22] of the same compound?
A: Its AC50 is 3160 nM (inconclusive).

Q: For `CC(C)[C@@H](CC(=O)N[C@@H]1CCCC[C@H]1C(=O)N[C@H](CC(=O)N[C@@H](CCC(=O)O)CC(=O)O)Cc1c[nH]c2ccccc12)NC(=O)C[C@H](CO)NC(=O)[C@@H]1CNCC[C@H]1N`, which AC50 [21] is on record?
A: Its AC50 is 31600 nM (inconclusive).

Q: Which results are given for `CCOC(=O)c1ccc(NC(=O)CC2Sc3ncnn3C2=O)cc1` (stereo unspecified)?
A: IC50 [23]: > 66000 nM (inactive); IC50 [24]: > 66000 nM (inactive); IC50 [25]: 61800 nM (active)
